{"source": "ChEMBL document CHEMBL1201862", "about": "“PubChem BioAssay data set” (2004)", "key": {"[1]": {"test": "Luminescence Cell-Based Dose Retest to Confirm Inhibitors of Cancer Stem Cells. [Related pubchem assays (depositor defined):AID2717, AID2721]", "format": "functional", "conditions": "Homo sapiens"}, "[2]": {"biological_target": "Cytochrome P450 2C19 (Homo sapiens, UniProt P33261)", "sequence (P33261 whole entry)": "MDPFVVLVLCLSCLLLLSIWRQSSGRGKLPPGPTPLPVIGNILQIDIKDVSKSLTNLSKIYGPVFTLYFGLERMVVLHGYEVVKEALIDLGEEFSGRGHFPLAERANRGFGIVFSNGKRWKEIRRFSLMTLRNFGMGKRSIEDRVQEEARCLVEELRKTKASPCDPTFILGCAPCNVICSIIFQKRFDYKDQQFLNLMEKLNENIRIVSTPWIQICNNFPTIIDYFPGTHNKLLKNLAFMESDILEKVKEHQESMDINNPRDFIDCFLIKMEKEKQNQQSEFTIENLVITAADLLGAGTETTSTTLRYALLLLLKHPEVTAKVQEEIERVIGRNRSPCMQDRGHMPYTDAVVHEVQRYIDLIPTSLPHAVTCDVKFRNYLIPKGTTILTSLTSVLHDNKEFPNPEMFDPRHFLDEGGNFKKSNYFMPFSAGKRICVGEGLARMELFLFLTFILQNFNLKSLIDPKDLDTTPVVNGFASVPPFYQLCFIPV", "test": "Cytochrome panel assay with activity outcomes. Panel member name: p450-cyp2c19 Compounds with AC50 equal or less than 10 uM are considered active", "format": "functional"}, "[3]": {"biological_target": "T1, Rac GTPase-activating protein 1 (Homo sapiens, UniProt Q9H0H5)", "T1 sequence (Q9H0H5 whole entry)": "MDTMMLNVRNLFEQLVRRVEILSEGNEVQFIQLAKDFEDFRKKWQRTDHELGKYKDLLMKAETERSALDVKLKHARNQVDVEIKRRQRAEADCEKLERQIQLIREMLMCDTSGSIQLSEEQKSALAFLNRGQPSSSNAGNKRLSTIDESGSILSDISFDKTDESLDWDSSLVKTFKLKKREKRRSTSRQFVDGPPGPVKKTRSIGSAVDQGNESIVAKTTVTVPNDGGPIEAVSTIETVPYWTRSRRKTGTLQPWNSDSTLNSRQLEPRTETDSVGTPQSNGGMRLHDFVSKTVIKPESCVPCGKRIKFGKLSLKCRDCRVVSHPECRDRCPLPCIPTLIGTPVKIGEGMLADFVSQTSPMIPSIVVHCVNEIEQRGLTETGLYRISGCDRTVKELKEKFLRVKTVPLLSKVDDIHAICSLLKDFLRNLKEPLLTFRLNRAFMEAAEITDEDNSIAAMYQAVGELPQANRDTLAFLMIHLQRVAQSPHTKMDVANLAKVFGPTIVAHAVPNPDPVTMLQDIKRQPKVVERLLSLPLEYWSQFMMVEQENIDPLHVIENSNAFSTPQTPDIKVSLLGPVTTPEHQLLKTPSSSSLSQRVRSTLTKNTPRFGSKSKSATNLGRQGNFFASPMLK", "test": "MgcRacGAP GTPase-activating activity inhibitors, confirmation, biochemical, ADP Hunter fluorescence, primary and confirmatory (AID 624330)", "format": "functional"}, "[4]": {"biological_target": "Cytochrome P450 3A4 (Homo sapiens, UniProt P08684)", "sequence (P08684 whole entry)": "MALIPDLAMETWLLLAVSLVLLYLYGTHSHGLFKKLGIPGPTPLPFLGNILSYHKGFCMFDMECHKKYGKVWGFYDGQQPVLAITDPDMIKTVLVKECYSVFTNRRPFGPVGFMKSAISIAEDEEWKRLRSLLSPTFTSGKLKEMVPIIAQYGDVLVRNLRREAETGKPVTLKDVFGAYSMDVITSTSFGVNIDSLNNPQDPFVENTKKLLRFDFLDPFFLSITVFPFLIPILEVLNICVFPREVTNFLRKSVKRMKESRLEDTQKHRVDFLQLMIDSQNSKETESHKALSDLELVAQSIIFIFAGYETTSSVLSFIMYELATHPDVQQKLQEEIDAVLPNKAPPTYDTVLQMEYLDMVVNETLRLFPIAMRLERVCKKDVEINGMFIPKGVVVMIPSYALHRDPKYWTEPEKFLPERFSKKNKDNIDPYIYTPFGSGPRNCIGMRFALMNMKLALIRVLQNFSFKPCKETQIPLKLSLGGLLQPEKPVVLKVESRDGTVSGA"}, "[5]": {"tested_on": "H4", "test": "Luminescence Cell-Based Dose Response HTS to Identify Activators of 5'UTR Stem-Loop Driven Prion Protein mRNA Translation in H4 Neuroglioblastoma Cells. [Related pubchem assays: 1829 (Project Summary), 1814 (Primary HTS)]", "format": "functional", "conditions": "Homo sapiens"}, "[6]": {"tested_on": "Streptococcus sp. 'group A'", "test": "growth inhibition of control SK(-) GAS strain, dose response, counter-screen for streptokinase expression inhibitor project, luminescence, kanamycin, BacTiterGlo, confirmation (AID 1900)", "format": "functional, organism-based"}, "[7]": {"tested_on": "Streptococcus", "test": "Group A Streptococcus viability loss, dose response, counter-screen for streptokinase expression inhibitor project, luminescence, BacTiterGlo (AID 1915);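 note: potency for reduction of bacterial viability or growth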", "format": "functional, organism-based"}}, "note": "Calls of active or inactive are those of the source."}
{"smiles": "Oc1ccccc1/C=N/NP(=S)(c1ccccc1)c1ccccc1", "values": [{"measurement": "AC50", "setting": "[1]", "value": "2.69 µM (active)"}]}
{"smiles": "O=C(CN(Cc1ccccc1Cl)C(=O)c1ccc(CN2CCOCC2)o1)NCC1CCCO1", "note": "(centres undefined)", "values": [{"measurement": "AC50", "setting": "[2]; read-out: AC50", "value": "10 µM (inconclusive)"}]}
{"smiles": "Sc1nnc2sc3ccccc3n12", "values": [{"measurement": "IC50", "setting": "[3]", "value": "35.8 µM (active)"}]}
{"smiles": "COc1cc(OC)cc(C(=O)N2CCN(Cc3ccc4c(c3)OCO4)CC2)c1", "values": [{"measurement": "IC50", "setting": "[3]", "value": "188 µM (active)"}]}
{"smiles": "Cc1c(-c2ccccc2)sc(N)c1C(=O)N1CCOCC1", "values": [{"measurement": "IC50", "setting": "[3]", "value": "41.5 µM (active)"}]}
{"smiles": "COc1cc(N=Nc2ccc(C)cc2S(N)(=O)=O)c(C)cc1N", "values": [{"measurement": "IC50", "setting": "[3]", "value": "76.2 µM (active)"}]}
{"smiles": "Cc1ccc(/C=N/Nc2cc(C)nc(NCc3ccccc3)n2)cc1", "values": [{"measurement": "AC50", "setting": "[1]", "value": "6.45 µM (active)"}]}
{"smiles": "C=C1C/C(=C\\C)C(=O)O[C@@H]2CCN3CC=C(COC(=O)[C@@]1(C)O)[C@H]23", "values": [{"measurement": "AC50", "setting": "[2]", "value": "inconclusive"}, {"measurement": "AC50", "setting": "[4]", "value": "12.6 µM (inconclusive)"}]}
{"smiles": "Cc1cccc(NC(=O)Nc2ccc3c(c2)OCO3)n1", "values": [{"measurement": "EC50", "setting": "[5]", "value": "9.72 µM (active)"}]}
{"smiles": "CC[C@@H]1OC(=O)[C@H](C)[C@H](O[C@@H]2C[C@](C)(OC)[C@H](O)[C@H](C)O2)[C@H](C)[C@H](O[C@@H]2O[C@@H](C)C[C@@H](N(C)C)[C@@H]2O)[C@](C)(O)C[C@H](C)C(=O)[C@H](C)[C@H](O)[C@]1(C)O", "values": [{"measurement": "AC50", "setting": "[4]", "value": "12.6 µM (inconclusive)"}]}
{"smiles": "COc1ccccc1CN1CCCC2(CCN(C(=O)c3csnn3)CC2)C1", "values": [{"measurement": "AC50", "setting": "[4]", "value": "15.8 µM (inconclusive)"}]}
{"smiles": "COc1cc(CNC(C)c2ccccc2)cc(Br)c1OCc1ccccc1", "note": "(centres undefined)", "values": [{"measurement": "AC50", "setting": "[1]", "value": "5.92 µM (active)"}]}
{"smiles": "O=C(NC1CONC1=O)OCC(Cl)(Cl)Cl", "note": "(centres undefined)", "values": [{"measurement": "AC50", "setting": "[1]", "value": "> 195 µM (inactive)"}]}
{"smiles": "CC(C)c1ccc(/C=C/C(=O)NC2=NCCS2)cc1", "values": [{"measurement": "AC50", "setting": "[1]", "value": "1.99 µM (active)"}]}
{"smiles": "COCCNC(=O)C1CCN(S(=O)(=O)N2CCC3(CC2)OCCO3)CC1", "values": [{"measurement": "AC50", "setting": "[2]; read-out: AC50", "value": "15.8 µM (inconclusive)"}]}
{"smiles": "CC(=O)NCCNc1ccnc(-c2ccccc2C)n1", "values": [{"measurement": "AC50", "setting": "[4]", "value": "20 µM (inconclusive)"}]}
{"smiles": "O/N=C/c1ccnc(SCc2ccc(Cl)cc2)n1", "values": [{"measurement": "AC50", "setting": "[1]", "value": "3.58 µM (active)"}]}
{"smiles": "c1ccc(OCCCN2CCCC2)cc1", "values": [{"measurement": "IC50", "setting": "[3]", "value": "159 µM (active)"}]}
{"smiles": "COc1ccccc1N=C(S)NNC(=O)c1c(Cl)c(C)nn1C", "values": [{"measurement": "AC50", "setting": "[2]", "value": "inconclusive"}]}
{"smiles": "COc1ccc(CNc2ncc(-c3ccccc3)n2C)c(OC)c1OC", "values": [{"measurement": "IC50", "setting": "[3]", "value": "65.7 µM (active)"}]}
{"smiles": "O=C(CNCCO)N1CCc2ccccc21", "values": [{"measurement": "AC50", "setting": "[4]", "value": "1.41 µM (inconclusive)"}]}
{"smiles": "COCCCN=C(S)NC1CC2CCCC(C1)N2Cc1cccs1", "note": "(centres undefined)", "values": [{"measurement": "AC50", "setting": "[2]; read-out: AC50", "value": "1.26 µM (inconclusive)"}]}
{"smiles": "COc1cccc(Nc2ncc3nc(-c4cc(F)cc(F)c4)c(=O)n(C[C@H]4CCCO4)c3n2)c1", "values": [{"measurement": "AC50", "setting": "[4]", "value": "6.31 µM (inconclusive)"}]}
{"smiles": "Oc1ccc(/C=C/c2nc3ccccc3nc2O)cc1", "values": [{"measurement": "IC50", "setting": "[3]", "value": "31.5 µM (active)"}]}
{"smiles": "Cc1cnc(CNc2ccnc(-c3ccccc3C)n2)cn1", "values": [{"measurement": "AC50", "setting": "[4]", "value": "20 µM (inconclusive)"}]}
{"smiles": "CCCCc1ccc(NC(=O)CSc2nc(=O)n(CCN(CC)CC)c3c2CCC3)cc1", "values": [{"measurement": "AC50", "setting": "[1]", "value": "11.2 µM (active)"}]}
{"smiles": "O=C(C1=C(O)C(=O)N(c2cccc(Cl)c2)C1c1ccccc1[N+](=O)[O-])c1ccccc1", "note": "(centres undefined)", "values": [{"measurement": "AC50", "setting": "[4]", "value": "12.6 µM (inconclusive)"}]}
{"smiles": "CCOC(=O)C1C(=O)C=C(c2ccc(NS(C)(=O)=O)cc2)CC1c1ccco1", "note": "(centres undefined)", "values": [{"measurement": "AC50", "setting": "[4]", "value": "25.1 µM (inconclusive)"}]}
{"smiles": "CO[C@@]12C[C@@H](COC(=O)c3cncc(Br)c3)CN(C)[C@H]1Cc1cn(C)c3cccc2c13", "values": [{"measurement": "AC50", "setting": "[2]; read-out: AC50", "value": "7.94 µM (inconclusive)"}]}
{"smiles": "Cc1cccc(-c2nc(C#N)c(NC3CCCCC3)o2)c1", "values": [{"measurement": "AC50", "setting": "[1]", "value": "2.45 µM (active)"}]}
{"smiles": "Cc1sc(-n2c(C)cc(/C=C3\\SC(=S)NC3=O)c2C)c(C#N)c1C", "values": [{"measurement": "AC50", "setting": "[1]", "value": "2.5 µM (active)"}]}
{"smiles": "COc1ccc(NC2CCCN(C(=O)CCc3scnc3C)C2)cc1", "note": "(centres undefined)", "values": [{"measurement": "IC50", "setting": "[3]", "value": "96.1 µM (active)"}]}
{"smiles": "CCn1cc(C(=O)O)c(=O)c2cc(F)c(N3CCN(S(=O)(=O)c4ccc(NC(C)=O)cc4)CC3)cc21", "values": [{"measurement": "EC50", "setting": "[6]", "value": "5.05 µM (active)"}, {"measurement": "EC50", "setting": "[7]", "value": "7.08 µM (active)"}]}
{"smiles": "Nc1ccc2[nH]cc(CCC(=O)O)c2c1", "values": [{"measurement": "AC50", "setting": "[2]", "value": "inconclusive"}]}
{"smiles": "O=C(O)c1ccccc1C(=O)Nc1ccc(Nc2ccccc2)cc1", "values": [{"measurement": "IC50", "setting": "[3]", "value": "55.5 µM (active)"}]}
{"smiles": "CCCn1c(C)cc(C(=O)COc2ncnc3sccc23)c1C", "values": [{"measurement": "EC50", "setting": "[5]", "value": "> 120 µM (not active)"}]}
{"smiles": "N#CC1=C(Nc2ccccc2Cl)SC(c2ccccc2O)NC1=O", "note": "(centres undefined)", "values": [{"measurement": "IC50", "setting": "[3]", "value": "129 µM (active)"}]}
